The record followed here is US6794126B2, “Methods for preventing or inhibiting neuronal cell death” (The Trustees of Columbia University in the City of New York, priority 1996, dated 2004).

In data set [1] the test system is PC12 cells. The experiment in a line: Addition of rhIL-1β to PC12 cultures in the presence of NGF, insulin or serum. Format: cell-based. The note with it: 1 μg/ml. As to the method:
(§1) PC12 cells were grown as previously described (Greene and Tishcler, 1976) on rat-tail collagen-coated dishes in RPMI 1640 medium containing 5% fetal calf serum and 10% heat-inactivated horse serum (complete medium). NGF primed PC12 cells were grown for at least 7 days in RPMI 1640 medium plus 1% horse serum and NGF (100 ng/ml). For cell survival assays involving trophic factor deprivation, cells (either naive or NGF-pretreated) were extensively washed in serum-free RPMI 1640 medium and re-plated on fresh collagen-coated 24-well dishes as previously described (Rukenstein et al., 1991) in RPMI 1640 medium lacking serum or NGF. For SOD1 down-regulation survival assays, cells were re-plated in complete medium with V-ASOD1 (vector linked antisense oligonucleotide to SOD1, 50 nM). Various concentrations of ICE inhibitors were included in the medium as indicated. Numbers of viable cells per culture were determined by quantifying intact nuclei as previously described (Rukenstein et al., 1991). Counts were performed in triplicate and reported as means±SEM.

The subject of data set [2] is PC12 cells. The experiment in a line: PC12 cell survival after SOD1 down-regulation by V-ASOD1. Type of data set: cell-based, rat. As for the experimental part: as §1
The test system of data set [3] is sympathetic neurons. The experiment in a line: Survival of sympathetic neurons exposed to UV irradiation. Type of data set: cell-based, rat. The note with it: 200 nM, pretreated 18 hr. As for the experimental part:
Cells were exposed to UV irradiation using the Stratolinker UV crosslinker (Stratagene®). Sympathetic neurons were exposed to 3×10^4 μJ while neuronal PC12 cells were exposed to […]. Each well was exposed with 200 μl of medium containing NGF with or without the appropriate drug. After irradiation 300 μl of additional medium containing NGF with or without drug was added.
(§2) The cells were plated onto collagen-coated 24-well dishes at a density of approximately 0.5 ganglia per well and maintained in RPMI 1640 medium supplemented with 10% heat-inactivated horse serum and 60 ng/ml mouse NGF for a period of three days prior to the survival experiment. A mixture of uridine and 5-fluorodeoxyuridine (10 mM each) was also added to eliminate non-neuronal cells on day two. No pretreatment with survival agent, unless otherwise noted, was necessary for effective survival of neurons exposed to AraC. In the case of UV irradiation, the neurons died quite rapidly. Accordingly, neuronal cultures were pretreated overnight (18 hr) with survival-promoting agents prior to UV irradiation. NGF deprivation was performed by washing with NGF-free medium and addition of anti-NGF antiserum as previously described (Park et al., 1996a). V-ASOD1 oligonucleotides, in conjunction with the nitric oxide generator, S-nitrosopenicillamine (SNAP; 100 μM) were added to the cultured sympathetic neurons as previously described (Troy et al., 1997). At appropriate times, the numbers of viable, phase bright neurons were determined by strip counting as previously described (Rydel and Greene; 1988). All experimental points are expressed relative to the original number of neurons present in each well and are reported as mean+/−SEM (n=3).

Data set [4] concerns sympathetic neurons. The experiment in a line: Survival of sympathetic neurons depleted of SOD1 (V-ASOD1 plus SNAP). Format: cell-based, rat. As to conditions: V-linked peptides. As for the experimental part: as §2
Data set [5] relates to sympathetic neurons. As to the kind of experiment: Survival of sympathetic neurons deprived of NGF (Example 2). Type of data set: cell-based, rat. As to conditions: 200 nM, pretreated 18 hr. As to the method:
as §2

The next data set deals with IL-1β. The experiment in a line: Assay of IL-1β secreted by PC12 cells (ELISA). Format: cell-based, rat. As to conditions: 24 h; V-ICEinh 25 nM for V-ASOD1 treatment. As for the experimental part:
IL-1β was quantified by ELISA using the Intertest-1βX kit (Genzyme, Cambridge, Mass.). PC12 cells were grown as described above, on 24-well plates, in 500 μl of medium. After one day incubation, medium was removed and IL-1β measured following the manufacturer's instructions, and number of viable cells in each well quantified.

The test system of data set [6] is sympathetic neurons. As to the kind of experiment: Survival of sympathetic neurons treated with AraC. Format: cell-based. The note with it: 200 nM, AraC 100 μM. As for the experimental part: A mixture of uridine and 5-fluorodeoxyuridine (10 mM each) was also added to eliminate non-neuronal cells on day two. No pretreatment with survival agent, unless otherwise noted, was necessary for effective survival of neurons exposed to AraC. In the case of UV irradiation, the neurons died quite rapidly. Accordingly, neuronal cultures were pretreated overnight (18 hr) with survival-promoting agents prior to UV irradiation. […] All experimental points are expressed relative to the original number of neurons present in each well and are reported as mean+/−SEM (n=3).

Data set [7] relates to sympathetic neurons. As to the kind of experiment: Survival of cultured sympathetic neurons after NGF withdrawal (Example 1). Type of data set: cell-based, rat. As to conditions: 50 nM, NGF-deprived. As to the method: Sympathetic neuron cultures were prepared from 2 day old rat pups, as previously described (Ferrari et al., 1995). Cultures were grown in 24-well collagen coated dishes in RPMI 1640 medium plus 10% horse serum with mouse NGF (100 ng/ml). One day following plating, uridine and 5-fluorodeoxyuridine (10 μM each) were added to the cultures and left for three days to eliminate non-neuronal cells. On the sixth day following plating NGF was removed by washing the cultures three times with RPMI 1640 medium plus 10% horse serum, followed by the addition of medium containing anti-mouse NGF (1:200, Sigma) with or without ICE inhibitors. Each culture was scored, as previously described (Rydel and Greene, 1988), as numbers of living, phase-bright neurons at various times. Three replicate cultures were assessed for each condition and data were normalized to numbers of neurons present in each culture at the time of NGF withdrawal and reported as mean±SEM.

The subject of data set [8] is sympathetic neurons. The experiment in a line: Survival of sympathetic neurons exposed to camptothecin. Type of data set: cell-based, rat. As to conditions: V-linked peptides.
The test system of data set [9] is PC12 cells. As to the kind of experiment: PC12 cell survival after withdrawal of serum/NGF (trophic factor deprivation). Type of data set: cell-based, rat. As to conditions: naive and primed PC12 cells, serum/NGF withdrawal. As to the method:
as §1

Consider “IL-1β: recombinant human IL-1β provided by the NCI”, for which the “cell death on addition to PC12 cultures” value in the data set with PC12 cells [1] was “did not produce cell death”. The “effect of exogenous IL-1β on V-ASOD1 induced death” value with PC12 cells [2] (IL-1β 1 μg/ml with V-ASOD1 50 nM) was “potentiates the cell death”. Besides, the “effect of exogenous IL-1β on protection by V-ICEinh” value with PC12 cells [2] (IL-1β 1 μg/ml, V-ASOD1 50 nM, V-ICEinh 25 nM) is “abrogates the protection”. In addition, the “effect of exogenous IL-1β alone on cell death” value in the data set on PC12 cells [2] (IL-1β 1 μg/ml, no V-ASOD1) was “no effect”.
As to `CC[C@H](C)[C@H](N)C(=O)N[C@@H](CCC(N)=O)C(=O)N[C@@H](C)C(=O)N[C@@H](CSSC[C@H](N)C(=O)N[C@@H](CCCNC(=N)N)C(=O)N[C@@H](CCC(N)=O)C(=O)N[C@H](C(=O)N[C@@H](CCCCN)C(=O)N[C@H](C(=O)N[C@@H](Cc1c[nH]c2ccccc12)C(=O)N[C@@H](Cc1ccccc1)C(=O)N[C@@H](CCC(N)=O)C(=O)N[C@@H](CC(N)=O)C(=O)N[C@@H](CCCNC(=N)N)C(=O)N[C@@H](CCCNC(=N)N)C(=O)N[C@@H](CCSC)C(=O)N[C@@H](CCCCN)C(=O)N[C@@H](Cc1c[nH]c2ccccc12)C(=O)N[C@@H](CCCCN)C(=O)N[C@@H](CCCCN)C(=O)O)[C@@H](C)CC)[C@@H](C)CC)C(=O)N[C@@H](CCCNC(=N)N)C(=O)NCC(=O)O` [V-ICEinh], the “death of sympathetic neurons exposed to UV” value in the data set on sympathetic neurons [3] is recorded as “blocked death”. In addition, in the data set on sympathetic neurons [4], the “death of sympathetic neurons depleted of SOD1” value was “blocked death”. For the same molecule, the “protection from NGF deprivation” value in the data set on sympathetic neurons [5] is given as “protected”. Besides, the “increase in IL-1β secretion per cell after SOD1 down-regulation” value in the data set on IL-1β is given as “blocked”. In addition, the “death of AraC-treated sympathetic neurons” value in the data set on sympathetic neurons [6] is “blocked death”. Besides, in the data set with sympathetic neurons [7], the “time for which death was retarded” value is “at least 6 days” and the “time of complete protection from death” value is 3 days. The “death of sympathetic neurons exposed to camptothecin” value in the data set on sympathetic neurons [8] was “blocked death”. In the data set on PC12 cells [2], the “effect on the capacity of ASOD1 to lower cellular SOD1” value is given as “no effect”. Moreover, the “dose required for maximal protection” value with PC12 cells [2] (V-ASOD1 50 nM, one day) is 25 to 50 nM. Besides, in the data set on PC12 cells [2] (naive and NGF-treated PC12 cells, V-ASOD1 50 nM, one day), the “protection from death induced by down-regulation of SOD1” value was “protects”. In addition, the “time of partial protection” value with PC12 cells [9] is on record as “at least 8 days”. The “peptide concentration giving complete protection from death” value with PC12 cells [9] (24 hours) is 200 to 400 nM.
